The target in assay [1] is AktK (Homo sapiens, UniProt P31749). Put plainly: Luciferase-coupled chemiluminescence kinase assay (ATP consumption). It counts as biochemical. Conditions: read-out: AKT-1 IC50. An outline of the steps: (§1)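 Enzyme at 2.5-5 nM was preincubated 30 min at room temperature with compound in Tris pH 7.5, MgCl2, TX-100, DTT, then reacted with ATP for 3 h at ambient temperature. Remaining ATP was quantified by luciferase-luciferin chemiluminescence, with consumption kept at 25-60%; […].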
Chain of AktK (P31749 whole entry): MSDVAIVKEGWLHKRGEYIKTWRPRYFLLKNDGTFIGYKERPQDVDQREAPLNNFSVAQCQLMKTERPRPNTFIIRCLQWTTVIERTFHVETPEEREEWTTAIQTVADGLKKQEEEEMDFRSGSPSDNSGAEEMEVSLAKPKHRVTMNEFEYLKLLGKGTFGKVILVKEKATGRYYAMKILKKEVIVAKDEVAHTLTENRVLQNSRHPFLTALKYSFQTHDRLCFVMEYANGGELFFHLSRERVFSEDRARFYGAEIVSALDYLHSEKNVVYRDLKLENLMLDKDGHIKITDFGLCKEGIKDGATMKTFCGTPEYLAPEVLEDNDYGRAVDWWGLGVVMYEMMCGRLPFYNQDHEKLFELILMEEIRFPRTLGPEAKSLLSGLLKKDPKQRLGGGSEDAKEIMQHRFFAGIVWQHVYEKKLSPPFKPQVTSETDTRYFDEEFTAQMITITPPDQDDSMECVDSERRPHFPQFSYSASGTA

Assay [2] concerns the target p70S6K (Homo sapiens, UniProt P23443). Described as above. It counts as biochemical. An outline of the steps: as §1

Read-outs that look alike come from different tables or passages of the source.

For orientation: IC50 means the concentration at which inhibition is half-maximal.

Chain of p70S6K (P23443 whole entry): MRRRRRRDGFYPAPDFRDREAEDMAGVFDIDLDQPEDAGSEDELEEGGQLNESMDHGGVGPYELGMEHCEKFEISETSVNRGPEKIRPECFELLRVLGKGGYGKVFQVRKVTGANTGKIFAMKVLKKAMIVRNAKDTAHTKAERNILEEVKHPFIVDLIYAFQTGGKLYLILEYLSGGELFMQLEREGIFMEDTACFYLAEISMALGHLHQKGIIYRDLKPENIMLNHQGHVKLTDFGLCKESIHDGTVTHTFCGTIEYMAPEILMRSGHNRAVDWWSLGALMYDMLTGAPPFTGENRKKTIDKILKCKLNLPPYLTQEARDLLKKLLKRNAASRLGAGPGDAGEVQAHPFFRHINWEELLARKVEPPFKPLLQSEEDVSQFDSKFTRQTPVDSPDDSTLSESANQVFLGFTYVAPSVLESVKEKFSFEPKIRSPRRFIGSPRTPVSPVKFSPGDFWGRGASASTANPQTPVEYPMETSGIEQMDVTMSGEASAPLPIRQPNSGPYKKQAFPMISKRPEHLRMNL

Consider `Cc1c(OCCCN2CCCC2)cc(Cl)cc1N1CCN(c2ncnc3[nH]nc(C(F)(F)F)c23)CC1` [Entry 68, 4-(4-{5-chloro-2-methyl-3-[(3-pyrrolidin-1-ylpropyl)oxy]phenyl}piperazin-1-yl)-3-(trifluoromethyl)-1H-pyrazolo[3,4-d]pyrimidine], for which the half-maximal inhibitory concentration (IC50) is 100 to 1000 nM in assay [1] (Table 1, class symbols per key) and below 100 nM in assay [2] (Table 1, class symbols per key).
On to `Cc1c(OCCCN2CCN(C)CC2)cc(Cl)cc1N1CCN(c2ncnc3[nH]nc(C(F)(F)F)c23)CC1` [Entry 70, 4-[4-(5-chloro-2-methyl-3-{[3-(4-methylpiperazin-1-yl)propyl]oxy}phenyl)piperazin-1-yl]-3-(trifluoromethyl)-1H-pyrazolo[3,4-d]pyrimidine], for which the IC50 in assay [1] (Table 1, class symbols per key) is 100 to 1000 nM; in assay [2] (Table 1, class symbols per key), below 100 nM.
`Cc1c(NCCN2CCCC2)cc(OCC(C)(C)C)cc1N1CCN(c2ncnc3[nH]nc(Br)c23)CC1` [Entry 221, 3-[4-(3-bromo-1H-pyrazolo[3,4-d]pyrimidin-4-yl)piperazin-1-yl]-5-[(2,2-dimethylpropyl)oxy]-2-methyl-N-(2-pyrrolidin-1-ylethyl)aniline]: the IC50 in assay [1] (Table 1, class symbols per key) was below 100 nM; in assay [2] (Table 1, class symbols per key) it was below 100 nM.
Regarding `CCc1n[nH]c2ncnc(N3CCN(c4cc(Cl)cc(CNCCN(C)C)c4OC)CC3)c12` [Entry 378, N′-{[5-chloro-3-[4-(3-ethyl-1H-pyrazolo[3,4-d]pyrimidin-4-yl)piperazin-1-yl]-2-(methyloxy)phe-nyl]methyl}-N,N-dimethylethane-1,2-diamine], the IC50 in assay [1] fell in the range of 1000 to 10000 nM; in assay [2] it was 100 to 1000 nM.
Take `Cc1c(OCCCN2CCN(C)CC2)cc(Cl)cc1N1CCN(c2ncnc3[nH]nc(Br)c23)CC1` [Entry 85, 3-bromo-4-[4-(5-chloro-2-methyl-3-{[3-(4-methylpiperazin-1-yl)propyl]oxy}phenyl)piperazin-1-yl]-1H-pyrazolo[3,4-d]pyrimidine]: the IC50 is below 100 nM in assay [1] (Table 1, class symbols per key) and below 100 nM in assay [2] (Table 1, class symbols per key).
As for `CCc1n[nH]c2ncnc(N3CCN(c4cc(Cl)ccc4OC)CC3)c12` [Entry 334, 4-{4-[5-chloro-2-(methyloxy)phenyl]piperazin-1-yl}-3-ethyl-1H-pyrazolo[3,4-d]pyrimidine], the IC50 was 1000 to 10000 nM in assay [1] and below 100 nM in assay [2].
Regarding `Cc1cc(N2CCN(c3ncnc4[nH]nc(Br)c34)CC2)c2ccccc2n1` [Entry 120, 4-[4-(3-bromo-1H-pyrazolo[3,4-d]pyrimidin-4-yl)piperazin-1-yl]-2-methylquinoline], the IC50 in assay [1] (Table 1, class symbols per key) was at least 10000 nM; in assay [2] (Table 1, class symbols per key) it was below 100 nM.
The like results for `Cc1c(CCCN2CCCCC2)cc(Cl)cc1N1CCN(c2ncnc3[nH]nc(C(F)(F)F)c23)CC1` [Entry 100, 4-{4-[5-chloro-2-methyl-3-(3-piperidin-1-ylpropyl)phenyl]piperazin-1-yl}-3-(trifluoromethyl)-1H-pyrazolo[3,4-d]pyrimidine] were, in that order, 100 to 1000 nM and below 100 nM.
On the same counts, the results for `CCc1n[nH]c2ncnc(N3CCN(c4cc(F)ccc4F)CC3)c12` [Entry 132, 4-[4-(2,5-difluorophenyl)piperazin-1-yl]-3-ethyl-1H-pyrazolo[3,4-d]pyrimidine] are at least 10000 nM and 100 to 1000 nM.
Take `CCS(=O)(=O)c1cc(NCCN2CCCC2)c(C)c(N2CCN(c3ncnc4[nH]nc(Br)c34)CC2)c1` [Entry 260, 3-[4-(3-bromo-1H-pyrazolo[3,4-d]pyrimidin-4-yl)piperazin-1-yl]-5-(ethylsulfonyl)-2-methyl-N-(2-pyrrolidin-1-ylethyl)aniline]: the IC50 is below 100 nM in assay [1] (Table 1, class symbols per key) and below 100 nM in assay [2] (Table 1, class symbols per key).
On to `CCN(CC)CCCOc1nc(Cl)nc(N2CCN(c3ncnc4[nH]nc(Br)c34)CC2)c1C` [Entry 149, 3-({6-[4-(3-bromo-1H-pyrazolo[3,4-d]pyrimidin-4-yl)piperazin-1-yl]-2-chloro-5-methylpyrimidin-4-yl}oxy)-N,N-diethylpropan-1-amine], for which the IC50 in assay [1] (Table 1, class symbols per key) lay in the range of 1000 to 10000 nM; in assay [2] (Table 1, class symbols per key), 100 to 1000 nM.
The like results for `Cc1ccc(-c2ccccc2OCCCN2CCOCC2)cc1N1CCN(c2ncnc3[nH]nc(Br)c23)CC1` [Entry 278, 3-bromo-4-(4-{4-methyl-2′-[(3-morpholin-4-ylpropyl)oxy]biphenyl-3-yl}piperazin-1-yl)-1H-pyrazolo[3,4-d]pyrimidine] were, in that order, below 100 nM and below 100 nM.
The like results for `CCN(CC)CCCOc1cc(Cl)cc(N2CCN(c3ncnc4[nH]nc(Br)c34)CC2)c1C` [Entry 83, 3-({3-[4-(3-bromo-1H-pyrazolo[3,4-d]pyrimidin-4-yl)piperazin-1-yl]-5-chloro-2-methylphenyl}oxy)-N,N-diethylpropan-1-amine] were, in that order, below 100 nM and below 100 nM.
On the same counts, the results for `Brc1ccc(N2CCN(c3ncnc4[nH]nc(Br)c34)CC2)cc1` [Entry 157, 3-bromo-4-[4-(4-bromophenyl)piperazin-1-yl]-1H-pyrazolo[3,4-d]pyrimidine] are at least 10000 nM and 100 to 1000 nM.
In the case of `CCc1n[nH]c2ncnc(N3CCN(c4nc(C)cc(C)n4)CC3)c12` [Entry 111, 4-[4-(4,6-dimethylpyrimidin-2-yl)piperazin-1-yl]-3-ethyl-1H-pyrazolo[3,4-d]pyrimidine], the IC50 in assay [1] (Table 1, class symbols per key) is at least 10000 nM; in assay [2] (Table 1, class symbols per key), 1000 to 10000 nM.
Regarding `Cc1ccc(Cl)cc1N1CCN(c2ncnc3[nH]nc(C#CCO)c23)CC1` [Entry 393, 3-{4-[4-(5-chloro-2-methylphenyl)piperazin-1-yl]-1H-pyrazolo[3,4-d]pyrimidin-3-yl}prop-2-yn-1-ol], the IC50 was 100 to 1000 nM in assay [1] and below 100 nM in assay [2].
As for `Cc1c(NCCN2CCCC2)cc(F)cc1N1CCN(c2ncnc3[nH]nc(C(F)(F)F)c23)CC1` [Entry 79, 5-fluoro-2-methyl-N-(2-pyrrolidin-1-ylethyl)-3-{4-[3-(trifluoromethyl)-1H-pyrazolo[3,4-d]pyrimidin-4-yl]piperazin-1-yl}aniline], the IC50 in assay [1] (Table 1, class symbols per key) is 100 to 1000 nM; in assay [2] (Table 1, class symbols per key), below 100 nM.
For `Cc1c(NCCN2CCCC2)cc(OCC(F)(CF)CF)cc1N1CCN(c2ncnc3[nH]nc(/C=C/C(=O)O)c23)CC1` [Entry 291, (2E)-3-[4-(4-{5-{[2,3-difluoro-2-(fluoromethyl)pro-pyl]oxy}-2-methyl-3-[(2-pyrrolidin-1-ylethyl)a-mino]phenyl}piperazin-1-yl)-1H-pyrazolo[3,4-d]pyrimidin-3-yl]prop-2-enoic acid], the IC50 in assay [1] and in assay [2] was below 100 nM in each case.
In the case of `Cc1c(CCCN2CCN(C)CC2)cc(Cl)cc1N1CCN(c2ncnc3[nH]nc(C(F)(F)F)c23)CC1` [Entry 92, 4-(4-{5-chloro-2-methyl-3-[3-(4-methylpiperazin-1-yl)propyl]phenyl}piperazin-1-yl)-3-(trifluoro-methyl)-1H-pyrazolo[3,4-d]pyrimidine], the IC50 was 100 to 1000 nM in assay [1] (Table 1, class symbols per key) and below 100 nM in assay [2] (Table 1, class symbols per key).
The like results for “3-bromo-4-{4-[5-{[2,3-difluoro-2-(fluorometh-yl)propyl]oxy}-2-methyl-3-(3-pyrrolidin-1-ylpropyl)phenyl]piperazin-1-yl}-1H-pyrazolo[3,4-d]pyrimidine [Entry 239]” were, in that order, below 100 nM and below 100 nM.
Consider `COc1ccccc1-c1n[nH]c2ncnc(N3CCN(c4cc(Cl)ccc4C)CC3)c12` [Entry 363, 4-[4-(5-chloro-2-methylphenyl)piperazin-1-yl]-3-[2-(methyloxy)phenyl]-1H-pyrazolo[3,4-d]pyrimidine], for which the IC50 in assay [1] is 1000 to 10000 nM; in assay [2] it was 100 to 1000 nM.
For `CCc1n[nH]c2ncnc(N3CCN(c4cc(Cl)cc(OCCCN5CCOCC5)c4C)CC3)c12` [Entry 26, 4-(4-{5-chloro-2-methyl-3-[(3-morpholin-4-ylpropyl)oxy]phenyl}piperazin-1-yl)-3-ethyl-1H-pyrazolo[3,4-d]pyrimidine], the IC50 was 1000 to 10000 nM in assay [1] (Table 1, class symbols per key) and below 100 nM in assay [2] (Table 1, class symbols per key).
In the case of `CCc1n[nH]c2ncnc(N3CCN(c4cccc(Cl)c4)CC3C(=O)OC)c12` (stereo not shown) [Entry 349, methyl 4-(3-chlorophenyl)-1-(3-ethyl-1H-pyrazolo[3,4-d]pyrimidin-4-yl)piperazine-2-carboxylate], the IC50 in assay [1] is at least 10000 nM; in assay [2] it was 1000 to 10000 nM.
Turning to `CCc1n[nH]c2ncnc(N3CCN(c4cc(Cl)c(OC)cc4C)CC3)c12` [Entry 390, 4-{4-[5-chloro-2-methyl-4-(methyloxy)phenyl]piperazin-1-yl}-3-ethyl-1H-pyrazolo[3,4-d]pyrimidine], the IC50 in assay [1] is 1000 to 10000 nM; in assay [2] it was below 100 nM.
As for `Cc1c(NCCN2CCCC2)cc(OC(C)C)cc1N1CCN(c2ncnc3[nH]nc(Br)c23)CC1` [Entry 220, 3-[4-(3-bromo-1H-pyrazolo[3,4-d]pyrimidin-4-yl)piperazin-1-yl]-2-methyl-5-[(1-methylethyl)oxy]-N-(2-pyrrolidin-1-ylethyl)aniline], the IC50 is below 100 nM in assay [1] (Table 1, class symbols per key) and below 100 nM in assay [2] (Table 1, class symbols per key).
Consider `Cc1ccc(Cl)cc1N1CCN(c2ncnc3[nH]nc(CC4CCNCC4)c23)CC1` [Entry 394, 4-[4-(5-chloro-2-methylphenyl)piperazin-1-yl]-3-(piperidin-4-ylmethyl)-1H-pyrazolo[3,4-d]pyrimidine], for which the IC50 in assay [1] and in assay [2] was 1000 to 10000 nM throughout.
`Cc1c(NCCN2CCCC2)cc(OCC2CCCC2)cc1N1CCN(c2ncnc3[nH]nc(Br)c23)CC1` [Entry 218, 3-[4-(3-bromo-1H-pyrazolo[3,4-d]pyrimidin-4-yl)piperazin-1-yl]-5-[(cyclopentylmethyl)oxy]-2-methyl-N-(2-pyrrolidin-1-ylethyl)aniline]: the IC50 in assay [1] (Table 1, class symbols per key) was below 100 nM; in assay [2] (Table 1, class symbols per key), below 100 nM.
On to `Fc1ccc(N2CCN(c3ncnc4[nH]ccc34)CC2)cc1` [Entry 312, 4-[4-(4-fluorophenyl)piperazin-1-yl]-7H-pyrrolo[2,3-d]pyrimidine], for which the values for the IC50 in assay [1] and in assay [2] were at least 10000 nM and 100 to 1000 nM, respectively.
Turning to `Clc1cccc(N2CCN(c3ncnc4[nH]cnc34)CC2)c1` [Entry 294, 6-[4-(3-chlorophenyl)piperazin-1-yl]-9H-purine], the IC50 was at least 10000 nM in assay [1] and 100 to 1000 nM in assay [2].

Source of the values: patent US8076338B2, “Kinase modulators and methods of use” (Exelixis, Inc., priority 2004, dated 2011).
